Data reported in US20260374815A1, “PIGMENT EPITHELIUM-DERIVED FACTOR PEPTIDES AND USE FOR TREATING RETINAL DEGENERATION” (priority 2022, published 2026).
Where no end group is shown, it is not given here.

Columns and labels:
[1] = Penetration or bioavailability of labeled peptide in retina after eyedrop (fluorometry of retinal extract); assay type: in vivo, mouse (C57/B16J); settings: eyedrops; P21 mice; measured with the Alexa488-labeled peptide
Experimental: To detect labeled peptide in vitro, the labeled Alexa488-17-mer[H105A] peptide was diluted in HBSS at the indicated concentrations (X-axis). A total of 30 μl of each was added to a well in 96-well plate in triplicates. RIPA buffer was added to one dissected mouse retina at 80 μl/retina. The suspension was sonicated for 30 sec at 4 °C followed by centrifugation at 4 °C. 10 min at […] (Eppendorf centrifuge) to separate the soluble retinal extract from the particulate material. The labeled peptide was diluted in retinal extract. A total of 30 μl of each was added to a well in 96-well plate. HBSS (FIG. 18A) or retinal extract (FIG. 18B) were used as a control at zero and different concentrations of 17mer[H105A]-488 as indicated in the x-axis. Fluorescence was determined using a fluorometer [BMG LabTech POLARstar OPTIMA] using wavelength at [Excitation 485-P, Emission 520-P]. Plots were obtained using GraphPad and non-linear fit were analyzed.
At 1, 3, 6 and 24 hours after administration, retinas were dissected, their proteins were extracted with RIPA (80 μl/retina) and clarified by sonication and centrifugation. A total of 30 μl of extracts were used to determine the fluorescence of the peptide with a fluorometer (FIG. 19).

[2] = test system: photoreceptor function, rd10 mice; assay: Electroretinography (ERG), rd10 mice; assay type: in vivo, mouse
Experimental: (§1) At end point, eyes were enucleated and cross section of retinas from the treated animals were obtained. […] Third, electroretinography was performed in untreated and eyes treated with the 17mer[H105A] peptide eyedrops. Following an intense brief flash of light from darkness, the negative-going a-wave is generated by rod photocurrents and the positive-going b-wave by depolarizing bipolar-cell currents in combination with bipolar cell-dependent K^+ currents affecting Müller cells. […] Scotopic b wave was also measured for both rd10 and rd10/SerpinF1 null mice (FIG. 10C). The data from these different assays corroborate the PSVue® data and illustrate the efficacy of eyedrops of the 17mer[H105A] peptide for protecting the photoreceptors against malformation, death, and misfunction in vivo.
At end point, eyes were enucleated and cross section of retinas from the treated animals were obtained. […] Electroretinography was also performed in untreated and eyes of rd10 mice treated with the […] eyedrops. […] The work was done with 3 animals, which may not give statistical significance.

[3] = test system: photoreceptor function, rd10/Serpinf1 null mice; assay: Electroretinography (ERG), rd10/Serpinf1 null mice; assay type: in vivo, mouse; settings: P21, daily eyedrops P15-P20
Experimental: as §1

[4] = P25, eyedrops every other day P15-P24

time after eyedrop at which the peptide reached the retina [1]: 1 to 24 h
ERG amplitude of the a-wave ([2]; P21, daily eyedrops P15-P20): improvement
ERG amplitude of the a-wave [2, 4]: improvement
ERG amplitude of the b-wave [2, 4]: improvement
statistical difference in b-wave between treated and untreated ([2]; P25, eyedrops every other day, 3 animals): no statistically significant difference
ERG amplitude of the a-wave [3]: improvement
Sequence: QRTESIIARALYYDLIS [17mer[H105A]]
